This test concerns larvae of Aedes aegypti mosquitoes of the PAEA laboratory strain. Kind of test: Larvicidal in-cup trial on larvae, protocol adapted from WHO protocols. As to conditions: for minimum concentration corresponding to an effective amount (100% mortality): 100% mortality of larvae at 24 h; for LD50 (SE) At 24 h / LD90 (SE) At 24 h / LD50 (SE) At 48 h / LD90 (SE) At 48 h: larval mortality, stage 3-4 larvae, PAEA strain; for LD50 (SE) At 24 h / LD90 (SE) At 24 h: 24 h after exposure; for LD50 (SE) At 48 h / LD90 (SE) At 48 h: 48 h after exposure. In kind it is in vivo. The source says: For the purposes of the present invention, the expression “agent that is insecticidal/larvicidal with respect to a mosquito strain” is intended to mean a compound which results in the death of the mosquito larvae placed in the presence of this compound, for example in the context of an in-cup trial carried out according to the protocol recommended by the WHO (Guidelines for Laboratory and Field Testing of Mosquito Larvicides, WHO/CDS/WHOPES/GCDPP/2005.13, 2005), and for which, according to the WHO criteria for validating the tests, the mortality in the control batches is less than 20%.
The biological trials were carried out on larvae of Aedes aegypti mosquitoes of the PAEA laboratory strain sensitive to all insecticides. The protocol described hereinafter was adapted according to the WHO protocols.
This strain originating from French Polynesia has been maintained for about ten years at the insectarium of the Institut Pasteur of Guyana, in Cayenne. The mosquitoes were bred under natural conditions: temperature of 28° C.±2° C., humidity of 80%±20%, and daytime duration 12:12 h±20 min during the year. The Aedes aegypti eggs were kept dry on strips of blotting paper at the insectarium temperature. Hatching was carried out by placing these strips in water under a vacuum bell jar for at least 20 min. The larvae thus obtained were fed with yeast tablets. The larvae at growth stage 3-4 were then used for the extract and constituent activity tests. 100 larvae were transferred into plastic cups containing 99 ml of distilled water. Four cups per concentration (4×25 larvae) and at least 5 concentrations of each extract or constituent diluted in ethanol (crude extract of Sextonia rubra: 1, 2, 3, 4, 5, 7, 10, 25, 35, 50, 75, 100 μg/ml, rubrenolide: 0.1, 0.3, 0.5, 0.7, 1, 1.5, 2 μg/ml, rubrynolide: 0.1, 0.3, 0.5, 0.7, 1, 1.5, 4, 6, 8 μg/ml) were used to measure mortalities ranging from 0 to 100%. Each concentration of extract or of constituent (1 ml) was added to the cup. Controls were also carried out by adding 1 ml of ethanol to the cup. The mortality was evaluated at 24 h and 48 h after exposure of the larvae to the test product (crude extract, isolated constituent, ethanol).

Take `C#CCCCCCCCC[C@@H]1C[C@H](C[C@@H](O)CO)C(=O)O1` [Rubrynolide, rubrynolide]: the “minimum concentration corresponding to an effective amount (100% mortality)” value was determined as 17 µg/mL, the “LD50 (SE) At 24 h” value was 3.840 (0.018) μg/ml, the “LD90 (SE) At 24 h” value is reported as 8.909 (0.031) μg/ml and the “LD50 (SE) At 48 h” value is on record as 2.105 (0.023) μg/ml. The “LD90 (SE) At 48 h” value was 8.200 (0.043) μg/ml. Further, where the note is “listed as rubrynolide”, the “LD50 (SE) At 24 h” value stood at 3.8 µg/mL.

As to `COP(=O)(OC)OC=C(Cl)Cl` [Dichlorvos, dichlorvos, reference compound], the “LD50 (SE) At 24 h” value is on record as 0.039 (0.012) μg/ml, the “LD90 (SE) At 24 h” value was 0.064 (0.026) μg/ml, the “LD50 (SE) At 48 h” value is on record as 0.029 (0.012) μg/ml and the “LD90 (SE) At 48 h” value was 0.049 (0.020) μg/ml.

For the compound `C=CCCCCCCCC[C@@H]1C[C@H](C[C@@H](O)CO)C(=O)O1` [Rubrenolide, rubrenolide], the “minimum concentration corresponding to an effective amount (100% mortality)” value was 2 µg/mL, the “LD50 (SE) At 24 h” value was 0.605 (0.023) μg/ml, the “LD90 (SE) At 24 h” value is reported as 2.110 (0.041) μg/ml and the “LD50 (SE) At 48 h” value is reported as 0.300 (0.024) μg/ml. For the same compound, the “LD90 (SE) At 48 h” value was 0.788 (0.027) μg/ml. The “LD50 (SE) At 24 h” value (listed as rubrenolide) is 0.6 µg/mL.

Regarding spinosad [reference compound], the “LD50 (SE) At 24 h” value is 0.387 (0.025) μg/ml, the “LD90 (SE) At 24 h” value is 1.118 (0.065) μg/ml, the “LD50 (SE) At 48 h” value is on record as 0.193 (0.020) μg/ml and the “LD90 (SE) At 48 h” value is recorded as 0.444 (0.028) μg/ml. Also, for the setting “listed as spinosad”, the “LD50 (SE) At 24 h” value stood at 0.4 µg/mL.

(Values after patent US10834926B2, “Insecticide properties of an extract of Sextonia rubra, and the constituents thereof” (Centre National de la Recherche Scientifique, priority 2014, dated 2020).)
